Results from patent publication US12685716B1 (priority 2022, dated 2026).

System: subject with AF/AFL
Test: Initiation of IV sotalol followed by first oral dose and same-day discharge (case Examples 1-12)
Assay type: in vivo, human
Experimental: • 1. After admission, obtain baseline parameters including QTc interval, HR, BP. • 2. […] Monitor QTc interval, HR, BP every 15 minutes during infusion. • 4. Administer first oral dose at the appropriate time based on renal function. For CrCl≥60 mL/min, oral administration time is planned 4 hours following the completion of IV infusion. For CrCl=30-59 mL/min, oral administration time is planned 6 hours following the completion of IV infusion. • 5. Obtain monitoring parameters including QTc interval, HR, BP at about 2 hours after oral administration. • 6. […] At arrival, baseline labs were obtained, and the subject was placed on continuous electrocardiogra monitoring. […] At arrival, baseline labs were obtained, and the subject was placed on continuous electrocardiography monitoring. […] At arrival, baseline labs were obtained, and the subject was placed on continuous electrocardiography monitoring. […] At arrival, baseline labs were obtained, and the subject was placed on continuous electrocardiography monitoring. […] At arrival, baseline labs were obtained, and the subject was placed on continuous electrocardiography monitoring. […] At arrival, baseline labs were obtained, and the subject was placed on continuous electrocardiography monitoring. […] At arrival, baseline labs were obtained, and the subject was placed on continuous electrocardiography monitoring. […] At arrival, baseline labs were obtained, and the subject was placed on continuous electrocardiography monitoring. […] At arrival, baseline labs were obtained, and the subject was placed on continuous electrocardiography monitoring. […] At arrival, baseline labs were obtained, and the subject was placed on continuous electrocardiography monitoring. […] At arrival, baseline labs were obtained, and the subject was placed on continuous electrocardiography monitoring. […] At arrival, baseline labs were obtained, and the subject was placed on continuous electrocardiography monitoring.

[1] = Example 1: IV 82.5 mg, DCCV, PO 80 mg 4 h after IV completion
[2] = Example 2: IV 82.5 mg, PO 80 mg 4 h after IV completion
[3] = Example 3: IV 75 mg, DCCV, PO 80 mg 5.5 h after IV completion
[4] = Example 4: IV 75 mg, DCCV, PO 80 mg 6.5 h after IV completion
[5] = Example 5: IV 75 mg, DCCV, PO 80 mg 5 h after IV completion
[6] = Example 6: IV 75 mg, DCCV, PO 80 mg 5.5 h after IV completion
[7] = Example 7: IV 60 mg, PO 120 mg 5 h after IV completion, second DCCV
[8] = Example 8: IV 82.5 mg, DCCV, PO 80 mg 4 h after IV completion
[9] = Example 9: IV 90 mg, DCCV, PO 120 mg 3.5 h after IV completion
[10] = Example 10: IV 75 mg, DCCV, PO 80 mg 6 h after IV completion
[11] = Example 11: IV 75 mg, DCCV, PO 80 mg 6 h after IV completion
[12] = Example 12: IV 75 mg, DCCV, PO 80 mg 6 h after IV completion

## CC(C)NCC(O)c1ccc(NS(C)(=O)=O)cc1 (stereo not shown) [sotalol, d,1-sotalol]
[1]
  Monitoring parameters (QTc, HR, BP) two hours after oral administration: within normal limits
  Rhythm two hours after oral administration: remained in NSR
Example 1: person, persistent AF/AFL, IV 82.5 mg over 1 h, then DCCV
  Rhythm conversion after IV sotalol infusion: converted from AF to NSR
[2]
  Monitoring parameters (QTc, HR, BP) two hours after oral administration: within normal limits
  Rhythm two hours after oral administration: remained in NSR
Example 2: person, paroxysmal AF and PVCs, IV 82.5 mg over 1 h, no DCCV
  Rhythm conversion after IV sotalol infusion: converted from AF to NSR
[3]
  Monitoring parameters including QTc two hours after oral administration: within normal limits
  Rhythm two hours after oral administration: remained in NSR
Example 3: person, persistent AF, CrCl 30 mL/min, IV 75 mg over 1 h, then DCCV
  Rhythm conversion after IV sotalol infusion: converted from AF to NSR
[4]
  Monitoring parameters including QTc two hours after oral administration: within normal limits
  Rhythm two hours after oral administration: remained in NSR
Example 4: person, persistent AF, CrCl 38 mL/min, IV 75 mg over 1 h, then DCCV
  Rhythm conversion after IV sotalol infusion: converted from AF to NSR
[5]
  Monitoring parameters including QTc two hours after oral administration: within normal limits
  Rhythm two hours after oral administration: remained in NSR
Example 5: person, persistent AF, CrCl 37 mL/min, IV 75 mg over 1 h, then DCCV
  Rhythm conversion after IV sotalol infusion: converted from AF to NSR
[6]
  Monitoring parameters including QTc two hours after oral administration: within normal limits
  Rhythm two hours after oral administration: remained in NSR
Example 6: person, PVCs and paroxysmal AF, CrCl 41 mL/min, IV 75 mg over 1 h, then DCCV
  Rhythm conversion after IV sotalol infusion: converting the subject from AF to NSR
[7]
  Monitoring parameters (QTc, HR, BP) two hours after oral administration: within normal limits
  Rhythm two hours after oral administration: remained in NSR
Example 7: IV 60 mg, PO 120 mg 5 h after IV completion, then second DCCV
  Rhythm conversion after first oral dose and second DCCV: converted from AF to NSR
Example 7: person, persistent AF, IV 60 mg over 1 h, then first DCCV
  Rhythm conversion after IV sotalol infusion and first DCCV attempt: failed to convert
[8]
  Monitoring parameters (QTc, HR, BP) two hours after oral administration: within normal limits
  Rhythm two hours after oral administration: remained in NSR
Example 8: person, persistent AF, IV 82.5 mg over 1 h, then DCCV
  Rhythm conversion after IV sotalol infusion: converted from AF to NSR
[9]
  Monitoring parameters (QTc, HR, BP) two hours after oral administration: within normal limits
  Rhythm two hours after oral administration: remained in NSR
Example 9: person, persistent AF, IV 90 mg over 1 h, then DCCV
  Rhythm conversion after IV sotalol infusion: converting the subject from AF to NSR
[10]
  Monitoring parameters (QTc, HR, BP) two hours after oral administration: within normal limits
  Rhythm two hours after oral administration: remained in NSR
Example 10: person, persistent AF, CrCl 56 mL/min, IV 75 mg over 1 h, then DCCV
  Rhythm conversion after IV sotalol infusion: converted from AF to NSR
[11]
  Monitoring parameters (QTc, HR, BP) two hours after oral administration: within normal limits
  Rhythm two hours after oral administration: remained in NSR
Example 11: person, persistent AF, CrCl 50 mL/min, IV 75 mg over 1 h, then DCCV
  Rhythm conversion after IV sotalol infusion: converted from AF to NSR
[12]
  Monitoring parameters (QTc, HR, BP) two hours after oral administration: within normal limits
  Rhythm two hours after oral administration: remained in NSR
Example 12: person, PVCs and persistent AF, CrCl 53 mL/min, IV 75 mg over 1 h, then DCCV
  Rhythm conversion after IV sotalol infusion: converted from AF to NSR
